Measured values from ChEMBL document CHEMBL1144193, “Design, synthesis, and evaluation of novel aryl-tetrahydropyridine PPARalpha/gamma dual agonists” (Bioorg Med Chem Lett, 2008).

Experiments:
[1] = target: T1, Peroxisome proliferator-activated receptor alpha (Homo sapiens, UniProt Q07869); assay: Agonist activity at human PPARalpha expressed in african green monkey CV-1 by co-transfected with GAL4 by dual-glo luciferase reporter gene assay; assay type: functional
T1 sequence (Q07869 whole entry): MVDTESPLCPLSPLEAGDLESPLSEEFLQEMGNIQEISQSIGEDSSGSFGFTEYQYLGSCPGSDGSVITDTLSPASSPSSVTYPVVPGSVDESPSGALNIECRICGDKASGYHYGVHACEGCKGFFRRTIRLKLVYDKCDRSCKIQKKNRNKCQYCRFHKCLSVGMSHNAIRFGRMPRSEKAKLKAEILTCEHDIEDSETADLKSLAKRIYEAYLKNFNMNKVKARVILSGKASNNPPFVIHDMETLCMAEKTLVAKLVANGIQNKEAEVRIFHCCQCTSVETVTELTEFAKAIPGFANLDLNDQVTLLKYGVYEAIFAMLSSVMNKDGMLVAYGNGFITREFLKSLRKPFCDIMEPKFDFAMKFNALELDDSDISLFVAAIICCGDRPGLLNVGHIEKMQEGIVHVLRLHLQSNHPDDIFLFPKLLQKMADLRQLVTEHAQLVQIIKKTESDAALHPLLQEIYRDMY

[2] = target: T2, Peroxisome proliferator-activated receptor gamma (Homo sapiens, UniProt P37231)
T2 sequence (P37231 whole entry): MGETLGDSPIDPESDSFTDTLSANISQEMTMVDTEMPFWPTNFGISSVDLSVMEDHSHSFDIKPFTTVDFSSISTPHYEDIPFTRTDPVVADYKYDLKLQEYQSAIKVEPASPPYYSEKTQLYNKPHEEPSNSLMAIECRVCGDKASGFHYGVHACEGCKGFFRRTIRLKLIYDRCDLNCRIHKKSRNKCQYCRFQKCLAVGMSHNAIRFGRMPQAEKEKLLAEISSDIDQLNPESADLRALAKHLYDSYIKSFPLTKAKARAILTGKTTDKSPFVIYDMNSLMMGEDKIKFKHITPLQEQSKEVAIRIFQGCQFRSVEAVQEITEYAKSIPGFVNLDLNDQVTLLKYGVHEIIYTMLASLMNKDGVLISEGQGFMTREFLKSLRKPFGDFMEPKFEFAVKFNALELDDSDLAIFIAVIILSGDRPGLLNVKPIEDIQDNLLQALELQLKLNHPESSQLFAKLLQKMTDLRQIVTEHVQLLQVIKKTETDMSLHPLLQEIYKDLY
Description: Agonist activity at human PPARgamma expressed in african green monkey CV-1 co-transfected with GAL4 by dual-glo luciferase reporter gene assay

Row | Structure (SMILES) | EC50 [1] | EC50 [2]
1 | CCOC(Cc1ccc(OCCN2CC=C(c3ccc(Cl)cc3)CC2)cc1)C(=O)O (centres undefined) | 7070 nM | 2060 nM
2 | CCOC(Cc1ccc(OCCN2CC=C(c3cccc(Cl)c3)CC2)cc1)C(=O)O (centres undefined) | 3240 nM | 1670 nM
3 | CCOC(Cc1ccc(OCCN2CC=C(c3cccc(C(F)(F)F)c3)CC2)cc1)C(=O)O (centres undefined) | 3120 nM | 2230 nM
4 | CCOC(Cc1ccc(OCCN2CC=C(c3ccccc3)CC2)cc1)C(=O)O (centres undefined) | 5980 nM | 2150 nM
5 | CCCc1ccc(C2=CCN(CCOc3ccc(CC(OCC)C(=O)O)cc3)CC2)cc1 (centres undefined) | 2080 nM | 174 nM
6 | CCOC(Cc1ccc(OCCN2CC=C(c3ccc(Cl)cc3Cl)CC2)cc1)C(=O)O (centres undefined) | 1120 nM | 706 nM
7 | CCO[C@@H](Cc1ccc(OCCN2CC=C(c3ccc(Cl)c(Cl)c3)CC2)cc1)C(=O)O | 615 nM | 862 nM
8 | CCOC(Cc1ccc(OCCN2CC=C(c3ccc(F)cc3)CC2)cc1)C(=O)O (centres undefined) | 2230 nM | 3720 nM
9 | CCOC(Cc1ccc(OCCN2CC=C(c3ccc(OC)cc3)CC2)cc1)C(=O)O (centres undefined) | 11300 nM | 396 nM
10 | CCOC(Cc1ccc(OCCN2CC=C(c3cc(Cl)cc(Cl)c3)CC2)cc1)C(=O)O (centres undefined) | 2990 nM | 1420 nM
11 | CCOC(Cc1ccc(OCCN2CC=C(c3cccc(OC)c3)CC2)cc1)C(=O)O (centres undefined) | 17300 nM | 2380 nM
12 | CCOC(Cc1ccc(OCCCN2CC=C(c3ccc(C(F)(F)F)cc3)CC2)cc1)C(=O)O (centres undefined) | 9790 nM | 504 nM
13 | CC(C)(Oc1ccc(OCCN2CC=C(c3ccc(Cl)cc3)CC2)cc1)C(=O)O | 868 nM | 22800 nM
14 | CC(C)(Oc1cccc(OCCN2CC=C(c3ccc(Cl)cc3)CC2)c1)C(=O)O | 331 nM | 18800 nM
15 | CCOC(Cc1ccc(OCCN2CC=C(c3ccc(CC)cc3)CC2)cc1)C(=O)O (centres undefined) | 7580 nM | 689 nM
16 | CCOC(Cc1ccc(OCCN2CC=C(c3cc(Cl)ccc3Cl)CC2)cc1)C(=O)O (centres undefined) | 1120 nM | 1440 nM
17 | CCOC(Cc1ccc(OCCN2CC=C(c3ccc(Cl)c(Cl)c3)CC2)cc1)C(=O)O (centres undefined) | 1150 nM | 670 nM
